Tested on: FCA-Induced Hyperalgesia
Experiment: FCA-Induced Hyperalgesia in the Guinea Pig
Assay type: in vivo
Conditions: dose of 5 mg/kg po
Protocol: (b) FCA-Induced Hyperalgesia in the Guinea Pig Compounds having a pKb>7.0 in vitro, according to model (a) were tested in this model of hyperalgesia (see WO 2004/024710 for details) and shown to be active.

Cn1c(=O)ccc2c(NC(=O)C3CCN(c4ccc(Cl)cc4)CC3)cccc21 [Example 1, 1-(4-Chlorophenyl)-N-(1-methyl-2-oxo-1,2-dihydro-5-quinolinyl)-4-piperidinecarboxamide]
activity in FCA-induced hyperalgesia model: significant activity

Reference: patent US20110059979A1, “Piperidine/Cyclohexane Carboxamide Derivatives For Use as Vanilloid Receptor Modulators” (GLAXO GROUP LIMITED, priority 2003, published 2011)
